Assay results reported in patent US20260207600A1, “METHODS OF TREATMENT WITH MYOSIN MODULATOR” (MYOKARDIA, INC., priority 2019, published 2026).
In brackets after ≈: the same amount, converted by molar mass.

Legend:
[1] = API thermodynamic solubility; format: physicochemical; settings: thermodynamic from solid
[2] = tested on: participants with symptomatic oHCM; assay: EXPLORER-HCM Phase 3 double blind, randomized, placebo controlled study; format: in vivo, human
From the text: A subset of participants consented to participate in a CMR substudy at selected sites. Randomization was stratified according to NYHA functional classification (II or III), current treatment with β-blocker (yes or no), planned type of ergometer used during the study (treadmill or exercise bicycle), and consent for the CMR substudy (yes or no).
The study included 3 periods carried out according to the following design:
1) Screening period (Day −35 to Day −1): Participants will undergo a variety of general, cardiopulmonary, laboratory, symptom, and PRO assessments over 1 to 2 days in order to assess eligibility. Key Screening tests include electrocardiogram (ECG); transthoracic echocardiography (TTE) conducted at rest, with Valsalva maneuver, and post-exercise; as well as cardiopulmonary exercise testing (CPET). The following screening assessments may be repeated, as long as within the 35-days screening window: blood tests, ECG, and/or TTE. Repeat assessments are allowed if central core labs require a repeat submission due to quality and in order to better assess inclusion/exclusion values. Participants who screen fail may be considered for rescreening based on the investigator's discretion, taking into consideration the reason(s) for screen fail. One attempt at rescreening will be allowed, and all procedures must be repeated.
2) Double-blind treatment period (Day 1 [randomization] to Week 30/end of treatment [EOT]): The double-blind treatment period will include a two-step dose titration scheme designed to achieve safe and effective dosing for each participant based on their own response parameters. […] Subsequently, assessments including ECG, PK (trough plasma concentrations), and TTE will be performed at each of 7 study visits, beginning at Week 4, and read by core laboratories. At Week 8 and Week 14, the dose may be increased, decreased, or remain unchanged based upon results of Week 6 and Week 12 assessments, respectively, and based primarily on measurements of provoked left ventricular outflow tract (LVOT) gradient and bounded by a target plasma concentration (PK) range and clinical tolerability (LVEF). At Week 8, the dose may be increased to a maximum daily dose of 10 mg (ie, increase from 5 mg QD to 10 mg QD), and at Week 14 to a maximum daily dose of 15 mg (ie, increase from 10 mg QD to 15 mg QD). Dose increases are designed to be step wise and are not allowed to skip doses (eg, from 5 mg to 15 mg).
At Week 30/EOT, participants will complete CPET and post-exercise TTE. For any participants permanently discontinuing treatment prior to Week 30, an early termination (ET) visit should be conducted as soon as possible, including CPET and post-exercise TTE. Participants with ET will also be encouraged to complete all remaining study visits and assessments, including the Week 30 visit.
3) Posttreatment follow-up period (Week 30/EOT to Week 38/end of study [EOS]): When double-blind treatment ends at Week 30, participants will be contacted by phone at Week 34 and return to the site at Week 38 for an EOS visit. At the EOS visit, specified assessments will be repeated. This posttreatment follow-up period applies only to participants who are receiving study drug after Week 22.
To maintain safety throughout the double-blind treatment period, a clinic visit will occur every 2 to 4 weeks, beginning at Week 4 for an initial evaluation of clinical tolerability and safety. Clinic visits will include but are not limited to clinical evaluation (symptoms, PRO evaluations, adverse event [AE]/serious adverse event [SAE] assessment), ECGs, PK sample, TTEs, and laboratory assessments. Results of TTE performed by study site sonographers at each scheduled visit following randomization should be kept blinded to the investigator and other study site personnel. […]

[3] = Mavacamten arm (n = 123), baseline to Week 30
[4] = Mavacamten arm, defined as NYHA Class I and all LVOT gradients <30 mmHg
[5] = change from baseline to Week 30, p <0.0001

CC(C)n1c(=O)cc(N[C@@H](C)c2ccccc2)[nH]c1=O [mavacamten, (S)-3-Isopropyl-6-((1-phenylethyl)amino)pyrimidine-2, 4(1H,3H)-dione]
solubility thermodynamic ([1]; DCM, organic solvent or mixture): 1100 µg/mL (≈ 4.02 mM)
solubility thermodynamic ([1]; DMF, organic solvent or mixture): ~130000 µg/mL (≈ 476 mM)
solubility thermodynamic ([1]; DMSO, organic solvent or mixture): > 150000 µg/mL
solubility thermodynamic ([1]; EtOAc, organic solvent or mixture): 1000 µg/mL (≈ 3.66 mM)
solubility thermodynamic ([1]; EtOH, organic solvent or mixture): 7400 µg/mL (≈ 27.1 mM)
solubility thermodynamic ([1]; NMP, organic solvent or mixture): > 150000 µg/mL
solubility thermodynamic ([1]; acetone, organic solvent or mixture): 3300 µg/mL (≈ 12.1 mM)
solubility thermodynamic ([1]; acetonitrile, organic solvent or mixture): 900 µg/mL (≈ 3.29 mM)
solubility thermodynamic ([1]; diethyl ether, organic solvent or mixture): 50 µg/mL (≈ 0.183 mM)
solubility thermodynamic ([1]; hexanes, organic solvent or mixture): < 10 µg/mL
solubility thermodynamic ([1]; n-heptanes, organic solvent or mixture): < 10 µg/mL
solubility thermodynamic ([1]; n-hexane, organic solvent or mixture): < 10 µg/mL
solubility thermodynamic ([1]; p-dioxane, organic solvent or mixture): 1200 µg/mL (≈ 4.39 mM)
solubility thermodynamic ([1]; water): 10 µg/mL (≈ 0.0366 mM)
subjects with severe TEAEs ([2]; 7 subjects, placebo 10.2%): 5.7%
Response Type 1 (pVO2 ≥1.5 ml/kg/min and NYHA improved ≥1), n (%) ([2]; Mavacamten (n = 123)): 41 (33.3) n (%)
Response Type 2 (pVO2 ≥3.0 ml/kg/min and no worsening NYHA), n (%) ([2]; Mavacamten (n = 123)): 29 (23.6) n (%)
pVO2 ≥3.0 and NYHA ≥1, n (%) ([2]; Mavacamten (n = 123)): 25 (20.3) n (%)
Met Composite Functional Response, either type, n (%) ([2]; Mavacamten (n = 123), Week 30): 45 (36.6) n (%)
Absence of MR (mitral regurgitation), (%) ([2]; Mavacamten arm): (9.0) %
Absence of MR (mitral regurgitation), n/assessible ([2]; Mavacamten arm): 10/111
Absence of SAM (systolic anterior motion of mitral valve), (%) ([2]; Mavacamten arm): (80.9) %
Absence of SAM (systolic anterior motion of mitral valve), n/assessible ([2]; Mavacamten arm): 76/94
participants with a temporary discontinuation associated with reduced ejection fraction ([2]; Mavacamten arm): 3
HCMSQ-SoB score, change from baseline, mean (SD) [2, 3]: −2.82 (2.7)
KCCQ-CSS, change from baseline, mean (SD) [2, 3]: 13.6 (14.4)
KCCQ-OSS, change from baseline, mean (SD) [2, 3]: 14.87 (15.8)
KCCQ-total symptom score, change from baseline, mean (SD) [2, 3]: 12.44 (15.0)
NYHA improved ≥1 Class, n (%) [2, 3]: 80 (65) n (%)
Post-exercise LVOT peak gradient, change from baseline, mean (SD) [2, 3]: −47.2 (40.3) mmHg
pVO2, change from baseline, mean (SD) [2, 3]: 1.4 (3.1) mL/kg/min
Post-exercise LVOT peak gradient < 30 mmHg, (%) ([2]; Mavacamten arm, Week 30): (56.6) %
Post-exercise LVOT peak gradient < 30 mmHg, n/assessible ([2]; Mavacamten arm, Week 30): 64/113
Post-exercise LVOT peak gradient < 50 mmHg, (%) ([2]; Mavacamten arm, Week 30): (74.3) %
Post-exercise LVOT peak gradient < 50 mmHg, n/assessible ([2]; Mavacamten arm, Week 30): 75/101
Complete Response, (%) [2, 4]: (27.4) %
Complete Response, n/assessible [2, 4]: 32/117
Met Composite Functional Response, either type ([2]; Mavacamten vs Placebo): 19.4
Response Type 1 ([2]; Mavacamten vs Placebo): 19.3
Response Type 2 ([2]; Mavacamten vs Placebo): 12.6
pVO2 ≥3.0 and NYHA ≥1 ([2]; Mavacamten vs Placebo): 12.5
Complete Response, Mava vs Placebo Difference (95% CI) ([2]; NYHA Class I and all LVOT gradients <30 mmHg, p <0.0001): 26.6 (18.3, 34.8)
NT-proBNP Mava vs Placebo Model Est RR ([2]; Week 30, 95% CI (0.169, 0.241), p <0.0001): 0.202
hs-cTnI Mava vs Placebo Model Est RR ([2]; Week 30, 95% CI (0.500, 0.693), p <0.0001): 0.589
Post-exercise LVOT peak gradient < 30 mmHg, Mava vs Placebo Difference (95% CI) ([2]; Week 30, p <0.0001): 49.6 (39.3, 59.8)
Post-exercise LVOT peak gradient < 50 mmHg, Mava vs Placebo Difference (95% CI) ([2]; Week 30, p <0.0001): 53.5 (42.0. 65.0)
NYHA improved ≥1 Class, Mavacamten vs Placebo Difference (95% CI) ([2]; baseline to Week 30, p <0.0001): 33.8 (22.1, 45.4) <0.0001
KCCQ-total symptom score, Mavacamten vs Placebo Difference (95% CI) ([2]; change from baseline to Week 30, p 0.0002): 7.60 (3.68, 11.52) 0.0002
pVO2, Mavacamten vs Placebo Difference (95% CI) ([2]; change from baseline to Week 30, p 0.0006): 1.35 (0.580, 2.116) 0.0006 mL/kg/min
HCMSQ-SoB score, Mavacamten vs Placebo Difference (95% CI) [2, 5]: −1.8 (−2.402, −1.196) <0.0001
KCCQ-CSS, Mavacamten vs Placebo Difference (95% CI) [2, 5]: 9.1 (5.46, 12.66) <0.0001
KCCQ-OSS, Mavacamten vs Placebo Difference (95% CI) [2, 5]: 9.12 (5.46, 12.80) <0.0001
Post-exercise LVOT peak gradient, Mavacamten vs Placebo Difference (95% CI) [2, 5]: −35.5 (−43.1, −27.9) <0.0001 mmHg
Tolerability ([2]; doses ranging from 2.5 to 15 mg): well tolerated
patients meeting the primary efficacy endpoint (composite functional response) ([2]; intent-to-treat, 45 of the 123 patients): 36.6%
permanent treatment discontinuations due to adverse events ([2]; on mavacamten (atrial fibrillation, syncope)): 2
Absence of MR, Mava vs Placebo Difference (95% CI) ([2]; p 0.0006): 9.0 (3.7, 14.3)
Absence of SAM, Mava vs Placebo Difference (95% CI) ([2]; p <0.0001): 46.9 (34.5, 59.2)
temporary discontinuations ([2]; patients on mavacamten (all at a 5 mg dose)): 8
patients achieving a complete response (NYHA 1 and all LVOT gradients below 30 mmHg) ([2]; placebo 1%): 27%
patients with cardiac SAEs ([2]; placebo 4): 4
patients achieving a post-exercise LVOT peak gradient below 30 mmHg ([2]; placebo 7%): 57%
number of SAEs ([2]; placebo 20): 12
patients achieving NYHA class I status ([2]; placebo 21%): 65%
subjects experiencing SAEs ([2]; through week 30, 10 subjects): 8.1%
